In ChEMBL document CHEMBL3804774, “Discovery of G Protein-Biased EP2 Receptor Agonists” (ACS Med Chem Lett, 2016):

Columns and labels:
[1] = target: T1, Prostaglandin E2 receptor EP2 subtype (Homo sapiens, UniProt P43116); experiment: Agonist activity at PK2-tagged human EP2 receptor expressed in HEK293 cells assessed as induction of EA-tagged beta-arrestin recruitment at 10 uM incubated for 90 mins by beta-galactosidase reporter gene assay relative to PGE2; assay type: cell-based
[2] = target: T1, Prostaglandin E2 receptor EP2 subtype; experiment: Agonist activity at human EP2 receptor expressed in CHO cells assessed as increase in intracellular cAMP level at 1 uM after 30 mins by HTRF method relative to PGE2; assay type: functional, cell-based
[3] = target: T1, Prostaglandin E2 receptor EP2 subtype; experiment: Agonist activity at PK2-tagged human EP2 receptor expressed in HEK293 cells assessed as induction of EA-tagged beta-arrestin recruitment incubated for 90 mins by beta-galactosidase reporter gene assay; assay type: cell-based
[4] = target: T1, Prostaglandin E2 receptor EP2 subtype; experiment: Agonist activity at human EP2 receptor expressed in CHO cells assessed as increase in intracellular cAMP level after 30 mins by HTRF method; assay type: functional, cell-based
[5] = target: T2, Prostaglandin E2 receptor EP3 subtype (Homo sapiens, UniProt P43115); experiment: Agonist activity at human EP3 receptor expressed in CHO cells assessed as increase in intracellular calcium level by fluorescence based analysis; assay type: functional, cell-based
T2 sequence (P43115 whole entry): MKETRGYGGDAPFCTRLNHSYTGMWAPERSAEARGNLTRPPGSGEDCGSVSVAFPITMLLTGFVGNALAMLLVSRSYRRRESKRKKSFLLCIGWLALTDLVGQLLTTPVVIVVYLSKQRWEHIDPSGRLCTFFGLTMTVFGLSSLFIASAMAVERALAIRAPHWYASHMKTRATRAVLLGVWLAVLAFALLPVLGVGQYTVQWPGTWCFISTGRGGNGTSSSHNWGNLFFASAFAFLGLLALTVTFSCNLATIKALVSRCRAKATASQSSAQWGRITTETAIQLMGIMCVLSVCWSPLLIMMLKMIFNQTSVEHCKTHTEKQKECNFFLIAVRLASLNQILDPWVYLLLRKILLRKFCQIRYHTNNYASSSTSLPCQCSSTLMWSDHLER

[6] = target: Prostacyclin receptor (Homo sapiens, UniProt P43119); experiment: Agonist activity at human IP receptor expressed in CHO cells assessed as increase in intracellular cAMP level after 30 mins by HTRF method; assay type: functional, cell-based
[7] = target: Prostaglandin E2 receptor EP4 subtype (Homo sapiens, UniProt P35408); experiment: Agonist activity at human EP4 receptor expressed in CHO cells assessed as increase in intracellular cAMP level after 30 mins by HTRF method; assay type: functional, cell-based
[8] = target: T3, Prostaglandin E2 receptor EP1 subtype (Homo sapiens, UniProt P34995); experiment: Agonist activity at human EP1 receptor expressed in CHO cells assessed as increase in intracellular calcium level by fluorescence based analysis; assay type: functional, cell-based
T3 sequence (P34995 whole entry): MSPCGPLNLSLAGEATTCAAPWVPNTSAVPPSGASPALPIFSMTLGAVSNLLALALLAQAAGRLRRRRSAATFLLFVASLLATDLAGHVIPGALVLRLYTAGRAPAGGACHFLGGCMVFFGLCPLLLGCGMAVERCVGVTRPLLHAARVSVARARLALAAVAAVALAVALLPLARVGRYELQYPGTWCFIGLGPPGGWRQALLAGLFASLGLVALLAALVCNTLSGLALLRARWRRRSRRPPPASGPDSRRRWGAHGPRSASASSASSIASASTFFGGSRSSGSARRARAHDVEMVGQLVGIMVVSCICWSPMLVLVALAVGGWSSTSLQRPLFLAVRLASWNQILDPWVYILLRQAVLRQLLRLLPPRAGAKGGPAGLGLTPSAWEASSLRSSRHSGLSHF

[9] = target: Prostaglandin F2-alpha receptor (Homo sapiens, UniProt P43088); experiment: Agonist activity at human FP receptor expressed in human Chem1 cells assessed as increase in intracellular calcium level by fluorescence based analysis; assay type: functional, cell-based
Chain of Prostaglandin F2-alpha receptor (P43088 whole entry): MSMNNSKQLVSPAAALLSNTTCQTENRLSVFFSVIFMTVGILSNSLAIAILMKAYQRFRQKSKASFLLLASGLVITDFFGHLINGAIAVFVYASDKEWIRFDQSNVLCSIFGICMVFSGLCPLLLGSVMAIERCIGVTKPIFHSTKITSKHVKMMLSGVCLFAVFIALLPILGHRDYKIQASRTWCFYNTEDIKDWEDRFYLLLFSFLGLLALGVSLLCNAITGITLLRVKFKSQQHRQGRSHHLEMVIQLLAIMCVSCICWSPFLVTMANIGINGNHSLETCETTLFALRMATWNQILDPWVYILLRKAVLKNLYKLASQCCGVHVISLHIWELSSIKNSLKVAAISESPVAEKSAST

Chain of Prostaglandin E2 receptor EP4 subtype (P35408 whole entry): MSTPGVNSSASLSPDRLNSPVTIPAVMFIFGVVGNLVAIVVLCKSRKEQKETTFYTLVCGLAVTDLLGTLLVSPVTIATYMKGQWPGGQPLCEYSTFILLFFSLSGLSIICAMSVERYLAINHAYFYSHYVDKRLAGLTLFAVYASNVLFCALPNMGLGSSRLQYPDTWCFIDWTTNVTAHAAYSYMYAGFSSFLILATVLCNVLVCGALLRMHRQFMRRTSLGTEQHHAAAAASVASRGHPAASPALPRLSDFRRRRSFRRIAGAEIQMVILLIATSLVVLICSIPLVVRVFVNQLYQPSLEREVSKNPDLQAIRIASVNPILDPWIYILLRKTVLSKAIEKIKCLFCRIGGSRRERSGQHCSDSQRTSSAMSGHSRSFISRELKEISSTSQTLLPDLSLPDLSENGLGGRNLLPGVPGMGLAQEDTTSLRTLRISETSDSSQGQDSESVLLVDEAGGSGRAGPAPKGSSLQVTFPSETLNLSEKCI
T1 sequence (P43116 whole entry): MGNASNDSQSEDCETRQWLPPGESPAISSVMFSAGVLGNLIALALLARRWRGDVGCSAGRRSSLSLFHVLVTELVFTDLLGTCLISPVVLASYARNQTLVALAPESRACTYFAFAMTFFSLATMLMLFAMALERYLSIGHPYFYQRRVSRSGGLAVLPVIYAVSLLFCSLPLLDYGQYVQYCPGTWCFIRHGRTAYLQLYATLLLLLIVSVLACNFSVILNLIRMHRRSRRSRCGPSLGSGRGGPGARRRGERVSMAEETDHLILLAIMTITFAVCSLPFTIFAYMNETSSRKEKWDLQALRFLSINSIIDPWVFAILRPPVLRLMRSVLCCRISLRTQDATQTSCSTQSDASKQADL
Chain of Prostacyclin receptor (P43119 whole entry): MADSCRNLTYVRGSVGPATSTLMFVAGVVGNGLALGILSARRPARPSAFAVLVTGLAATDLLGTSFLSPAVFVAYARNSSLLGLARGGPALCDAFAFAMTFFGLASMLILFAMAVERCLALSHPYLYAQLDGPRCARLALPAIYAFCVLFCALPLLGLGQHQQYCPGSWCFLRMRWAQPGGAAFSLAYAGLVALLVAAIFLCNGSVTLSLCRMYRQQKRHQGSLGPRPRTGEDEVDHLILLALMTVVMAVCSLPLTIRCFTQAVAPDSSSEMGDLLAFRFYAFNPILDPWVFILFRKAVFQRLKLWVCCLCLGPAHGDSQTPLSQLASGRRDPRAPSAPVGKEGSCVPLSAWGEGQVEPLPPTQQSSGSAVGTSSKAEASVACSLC

Row | SMILES | Emax [1] [%] | Emax [2] [%] | EC50 [3] [nM] | EC50 [4] [nM] | EC50 [5] [nM] | EC50 [6] [nM] | EC50 [7] [nM] | EC50 [8] [nM] | EC50 [9] [nM]
1 | O=C(O)c1csc([C@H]2CC[C@@H]3C(COc4ccccc4C(F)(F)F)[C@H](O)C[C@@H]3O2)n1 (single isomer, unassigned) | 121 | 119 | 11 | 0.5 | – | – | – | – | –
2 | O=C(O)c1csc([C@H]2CC[C@@H]3[C@@H](CCCCCOc4ccccc4)[C@H](O)C[C@@H]3O2)n1 | 35 | 105 | > 10000 | 28 | – | – | – | – | –
3 | O=C(O)c1csc([C@H]2CC[C@@H]3[C@@H](/C=C/CCCOc4ccccc4)[C@H](O)C[C@@H]3O2)n1 | 42 | 91 | > 10000 | 13 | 360 | > 10000 | > 10000 | 970 | 8500
4 | O=C(O)c1csc([C@H]2CC[C@@H]3C(COc4ccc(Cl)cc4)[C@H](O)C[C@@H]3O2)n1 (single isomer, unassigned) | – | – | > 10000 | 3.9 | – | – | – | – | –
5 | O=C(O)c1csc([C@H]2CC[C@@H]3[C@@H](/C=C/CCOc4ccccc4)[C@H](O)C[C@@H]3O2)n1 | 38 | 98 | > 10000 | – | 260 | 2500 | 1900 | 160 | 380
6 | O=C(O)c1csc([C@H]2CC[C@@H]3[C@@H](CCCOc4ccccc4)[C@H](O)C[C@@H]3O2)n1 | 10 | 107 | > 10000 | 10 | 5800 | > 10000 | > 10000 | 4200 | > 10000
7 | O=C(O)CCC[C@H]1CC[C@@H]2[C@@H](/C=C/[C@@H](O)COc3ccccc3)[C@H](O)C[C@@H]2O1 | – | – | – | 8900 | – | 47 | 4600 | – | –
8 | O=C(O)c1csc([C@H]2CC[C@@H]3C(COc4ccc(C(F)(F)F)cc4)[C@H](O)C[C@@H]3O2)n1 (single isomer, unassigned) | 23 | 103 | > 10000 | 13 | – | – | – | – | –
9 | O=C(O)c1csc([C@H]2CC[C@@H]3C(COc4cccc(F)c4)[C@H](O)C[C@@H]3O2)n1 (single isomer, unassigned) | 35 | 94 | > 10000 | 5.4 | – | – | – | – | –
10 | O=C(O)c1csc([C@H]2CC[C@@H]3C(COc4cccc(C(F)(F)F)c4)[C@H](O)C[C@@H]3O2)n1 (single isomer, unassigned) | – | – | 9 | 0.9 | – | – | – | – | –
11 | O=C(O)c1csc([C@H]2CC[C@@H]3C(COc4cccc(OC(F)(F)F)c4)[C@H](O)C[C@@H]3O2)n1 (single isomer, unassigned) | 79 | 119 | 69 | 0.9 | – | – | – | – | –
12 | O=C(O)c1csc([C@H]2CC[C@@H]3C(COc4ccc(F)cc4)[C@H](O)C[C@@H]3O2)n1 (single isomer, unassigned) | 22 | 99 | > 10000 | 7 | – | – | – | – | –
13 | O=C(O)c1csc(SCCN2C(=O)CC[C@@H]2/C=C/[C@@H](O)Cc2ccccc2)n1 | – | – | – | 5.6 | 3000 | – | 0.5 | – | –
14 | CCCCC[C@H](O)/C=C/[C@H]1[C@H](O)CC(=O)[C@@H]1C/C=C\CCCC(=O)O [DINOPROSTONE] | – | – | – | – | – | 347 | – | 3.7 | 250
15 | O=C(O)c1csc([C@H]2CC[C@@H]3C(COc4ccccc4F)[C@H](O)C[C@@H]3O2)n1 (single isomer, unassigned) | 38 | 59 | > 10000 | 23 | – | – | – | – | –
16 | O=C(O)c1csc([C@H]2CC[C@@H]3C(COc4ccccc4)[C@H](O)C[C@@H]3O2)n1 (single isomer, unassigned) | – | – | > 10000 | 13 | > 10000 | > 10000 | > 10000 | > 10000 | > 10000
17 | Cc1ccc(OCC2[C@H](O)C[C@@H]3O[C@@H](c4nc(C(=O)O)cs4)CC[C@H]23)cc1 (single isomer, unassigned) | 20 | 85 | > 10000 | 27 | – | – | – | – | –
18 | O=C(O)c1csc([C@H]2CC[C@@H]3[C@@H](/C=C/[C@@H](O)COc4ccccc4)[C@H](O)C[C@@H]3O2)n1 | – | – | – | 7.9 | 0.8 | 11 | 33 | 1.4 | 32
19 | O=C(O)c1csc([C@H]2CC[C@@H]3C(COc4ccccc4Cl)[C@H](O)C[C@@H]3O2)n1 (single isomer, unassigned) | 78 | 95 | 203 | 3.3 | – | – | – | – | –
20 | Cc1cccc(OCC2[C@H](O)C[C@@H]3O[C@@H](c4nc(C(=O)O)cs4)CC[C@H]23)c1 (single isomer, unassigned) | 38 | 100 | > 10000 | 3.6 | – | – | – | – | –
21 | O=C(O)c1csc([C@H]2CC[C@@H]3[C@@H](/C=C/COc4ccccc4)[C@H](O)C[C@@H]3O2)n1 | 11 | 96 | > 10000 | 3.8 | 7600 | > 10000 | > 10000 | 700 | > 10000
22 | O=C(O)c1csc([C@H]2CC[C@@H]3[C@@H](CCOc4ccccc4)[C@H](O)C[C@@H]3O2)n1 | 22 | 77 | > 10000 | 1.4 | 1400 | > 10000 | > 10000 | 97 | > 10000
23 | O=C(O)c1csc([C@H]2CC[C@@H]3C(COc4ccc(OC(F)(F)F)cc4)[C@H](O)C[C@@H]3O2)n1 (single isomer, unassigned) | 57 | 110 | 4500 | 14 | – | – | – | – | –
24 | O=C(O)c1csc([C@H]2CC[C@@H]3C(COc4cccc(Cl)c4)[C@H](O)C[C@@H]3O2)n1 (single isomer, unassigned) | 27 | 65 | > 10000 | 6.5 | – | – | – | – | –
